Data set [1] has as its system SARS-CoV-2. The data set is classed as cell-based.
In data set [2] the target is T1, human ACE2 (Homo sapiens, UniProt Q9BYF1).
T1 construct: purchased Sino Biological Inc. 10108-H08B
The data set can be described thus: SPR binding to immobilized human ACE2 (BIAcore S200). To be noted: read-out: ka. For orientation: Surface plasmon resonance follows binding to a sensor surface in real time, without labels.
Procedure: The remaining activated sites on the chip were blocked with 75 μL of ethanolamine (1 M, pH 8.5). […] The equilibrium dissociation constant (KD) for binding as well as the association (Ka) and dissociation (Kd) rate constants were determined using the BIA evaluation program (GE, USA).

Data set [3] in a line: in vitro. To be noted: Vero E6 cells.
The conditions of data set [4]: cited from earlier work.
For data set [5] the following is noted: preclinical and clinical studies; cited from earlier work.
For data set [6] the following is noted: cited from earlier work. The source holds these as a separate data set.
Data set [7] deals with T2, cathepsin L (Homo sapiens, UniProt P07711).
T2 construct: purchased Abcam ab65306
T2 sequence (P07711 114-333, species assumed): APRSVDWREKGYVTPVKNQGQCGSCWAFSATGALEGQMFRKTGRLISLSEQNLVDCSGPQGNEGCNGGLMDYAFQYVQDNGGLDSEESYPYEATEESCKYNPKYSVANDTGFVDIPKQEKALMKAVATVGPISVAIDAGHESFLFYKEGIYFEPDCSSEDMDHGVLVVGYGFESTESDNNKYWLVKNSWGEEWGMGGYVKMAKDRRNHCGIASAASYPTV
The data set can be described thus: Cathepsin L activity assay (fluorometric kit). In kind it is biochemical.
Procedure: A positive control of cathepsin L inhibitor I (CTSL, MG-101, 20 μM) was provided in the kit. A total of 2 μL of 10 mM Ac-FR-AFC substrate was added to each well. The samples were incubated at 37 °C for 2 h. Fluorescence was measured using a multifunctional microplate reader (Cytation 3, BioTek, Winooski, VT, USA), at an excitation wavelength of 400 nm and an emission wavelength of 505 nm.

For data set [8] the following is noted: rhesus monkey, in vivo.
In data set [9] the target is T3, SARS-CoV-2 spike protein–ACE2 interaction (Homo sapiens, UniProt Q9BYF1). The data set can be described thus: co-IP of SARS-CoV-2 spike protein with ACE2, western blot. In kind it is biochemical. To be noted: drug 10 μM; western blot with anti-ACE2 antibody. (In general: Immunoblotting shows a protein as a band on a membrane.)
T3 sequence (Q9BYF1 18-740): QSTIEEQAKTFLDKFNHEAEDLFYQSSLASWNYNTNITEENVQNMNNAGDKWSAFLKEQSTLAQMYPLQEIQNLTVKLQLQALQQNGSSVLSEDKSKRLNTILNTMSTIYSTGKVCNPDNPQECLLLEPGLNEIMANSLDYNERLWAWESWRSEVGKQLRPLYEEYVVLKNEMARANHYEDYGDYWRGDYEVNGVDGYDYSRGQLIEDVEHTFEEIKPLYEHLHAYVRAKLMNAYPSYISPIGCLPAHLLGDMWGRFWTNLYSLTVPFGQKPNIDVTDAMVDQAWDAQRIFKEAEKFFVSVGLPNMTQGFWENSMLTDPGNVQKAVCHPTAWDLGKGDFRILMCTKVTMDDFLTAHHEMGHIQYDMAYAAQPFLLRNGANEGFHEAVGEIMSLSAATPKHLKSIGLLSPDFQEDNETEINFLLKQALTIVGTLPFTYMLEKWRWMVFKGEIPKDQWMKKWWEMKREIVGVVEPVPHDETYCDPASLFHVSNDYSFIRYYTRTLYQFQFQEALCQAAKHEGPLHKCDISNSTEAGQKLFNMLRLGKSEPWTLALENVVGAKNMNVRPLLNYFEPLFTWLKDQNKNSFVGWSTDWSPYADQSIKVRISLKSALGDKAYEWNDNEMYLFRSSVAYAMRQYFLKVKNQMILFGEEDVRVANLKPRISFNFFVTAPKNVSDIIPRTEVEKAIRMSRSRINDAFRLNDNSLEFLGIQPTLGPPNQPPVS
Procedure: Co-IP was performed as follows. […] The blots were incubated with anti-rabbit IgG HRP (KPL, USA) and imaged using electrochemiluminescence (ECL, ThermoFisher, USA).
The target in data set [10] is T3, SARS-CoV-2 spike protein–ACE2 interaction. The data set can be described thus: ELISA of SARS-CoV-2 spike protein binding to ACE2 crosslinked to microplates. In kind it is biochemical. To be noted: drug 1 μM; 1 h 37 °C. (An ELISA detects its analyte on a solid surface through an enzyme-linked reagent.)

Bounds are passed on as bounds.

The source of these data is PMC7705431 (Cell Research, 2020).

One may read the CC50 as the concentration that lowers cell viability or growth by half. The term inhibition denotes the drop in the measured response relative to a control, in per cent.

T1 sequence (Q9BYF1 18-805): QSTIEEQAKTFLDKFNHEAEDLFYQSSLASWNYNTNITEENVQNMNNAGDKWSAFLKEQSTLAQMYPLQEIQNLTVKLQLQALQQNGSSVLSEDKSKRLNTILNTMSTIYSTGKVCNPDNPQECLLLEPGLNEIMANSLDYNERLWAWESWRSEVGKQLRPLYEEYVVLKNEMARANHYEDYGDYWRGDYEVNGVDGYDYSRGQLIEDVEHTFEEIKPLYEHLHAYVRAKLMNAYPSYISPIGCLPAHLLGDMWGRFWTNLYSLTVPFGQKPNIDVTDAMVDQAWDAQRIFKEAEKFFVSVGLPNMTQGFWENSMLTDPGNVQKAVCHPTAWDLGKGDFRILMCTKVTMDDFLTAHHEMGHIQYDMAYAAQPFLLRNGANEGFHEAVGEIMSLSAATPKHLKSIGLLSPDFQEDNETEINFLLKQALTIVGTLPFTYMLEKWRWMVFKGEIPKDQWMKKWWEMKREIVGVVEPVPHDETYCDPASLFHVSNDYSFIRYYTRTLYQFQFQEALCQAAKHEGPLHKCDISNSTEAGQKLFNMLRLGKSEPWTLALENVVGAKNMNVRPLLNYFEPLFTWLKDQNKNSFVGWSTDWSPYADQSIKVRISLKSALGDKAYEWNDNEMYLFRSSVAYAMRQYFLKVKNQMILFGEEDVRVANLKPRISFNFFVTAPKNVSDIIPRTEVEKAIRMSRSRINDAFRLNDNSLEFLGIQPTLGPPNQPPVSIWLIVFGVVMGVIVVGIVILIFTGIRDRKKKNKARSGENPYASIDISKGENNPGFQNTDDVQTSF

Take `CCC(CC)COC(=O)[C@H](C)N[P@](=O)(OC[C@H]1O[C@@](C#N)(c2ccc3c(N)ncnn23)[C@H](O)[C@@H]1O)Oc1ccccc1` [Remdesivir]: the “inhibition of CPEs” value in data set [1] was “significantly inhibited the CPEs”.
Regarding `CN[C@H]1C(=O)N[C@@H]2Cc3ccc(cc3)Oc3cc4cc(c3O[C@@H]3O[C@H](C(=O)O)[C@@H](O)[C@H](O)[C@H]3NC(=O)CCCCCCCCC(C)C)Oc3ccc(cc3Cl)[C@@H](O)[C@@H]3NC(=O)[C@H](NC(=O)[C@@H]4NC(=O)[C@@H](NC2=O)c2cc(cc(O)c2Cl)Oc2cc1ccc2O)c1ccc(O)c(c1)-c1c(O[C@H]2O[C@H](CO)[C@@H](O)[C@H](O)[C@@H]2O)cc(O)cc1[C@@H](C(=O)NCCCN(C)C)NC3=O` [dalbavancin], the kon in data set [2] amounted to 360000 M⁻¹ s⁻¹. This compound also gave a CC50 in data set [3] greater than 3.2 µM. Further, in [4], the protein-bound in plasma is recorded as greater than 90%. The tolerability result in data set [5] is “well tolerated”. In [6], the plasma half-life is 120 to 170 h. Further, in [7] (read-out: inhibition of cathepsin L enzymatic activity), the inhibition at 400 µM is roughly 40%. Further, the serum half-life in data set [8] is 120 to 170 h.
On to Oxiglutatione, for which, in data set [9], the “suppression of SARS-CoV-2 spike protein–ACE2 co-precipitation” value was “suppressed the interaction”. In addition, the “inhibition of binding of SARS-CoV-2 spike protein to ACE2 (ELISA)” value in data set [10] is “inhibited the binding”.
For the compound Polymyxin B sulfate, the “suppression of SARS-CoV-2 spike protein–ACE2 co-precipitation” value in [9] is “suppressed the interaction”.
Take cathepsin L inhibitor I: the “inhibition of cathepsin L enzymatic activity” value in data set [7] (20 μM, positive control, Ac-FR-AFC substrate, 37 °C 2 h) is recorded as ~ 100%.
